Measured values from ChEMBL document CHEMBL5241053, “Discovery of novel steroidal-chalcone hybrids with potent and selective activity against triple-negative breast cancer” (Bioorg Med Chem, 2020).
Activity calls are given as the source filed them. No cut-off for these calls is given here.

Legend:
MDA-MB-231 [1] = test: Induction of cell cycle arrest in human MDA-MB-231 cells assessed as accumulation of cells at G2/M phase at 10 uM incubated for 48 hrs by propidium iodide staining based flow cytometry (reference value: 3.61%); type: functional
MDA-MB-231 [2] = test: Induction of apoptosis in human MDA-MB-231 cells assessed as late apoptotic cells at 5 uM measured for 48 hrs by Annexin V-FITC/PI staining based flow cytometry assay (reference value: 5.39%); type: functional
MDA-MB-231 [3] = test: Induction of cell cycle arrest in human MDA-MB-231 cells assessed as accumulation of cells at G0/G1 phase at 5 uM incubated for 48 hrs by propidium iodide staining based flow cytometry (reference value: 90.25%); type: functional
MDA-MB-231 [4] = test: Induction of cell cycle arrest in human MDA-MB-231 cells assessed as accumulation of cells at G0/G1 phase at 1 uM incubated for 48 hrs by propidium iodide staining based flow cytometry (reference value: 90.25%); type: functional
MDA-MB-231 [5] = test: Induction of cell cycle arrest in human MDA-MB-231 cells assessed as accumulation of cells at S phase at 5 uM incubated for 48 hrs by propidium iodide staining based flow cytometry (reference value: 3.62%); type: functional
MDA-MB-231 [6] = test: Induction of apoptosis in human MDA-MB-231 cells assessed as viable cells at 1 uM measured for 48 hrs by Annexin V-FITC/PI staining based flow cytometry assay (reference value: 93.7%); type: functional; settings: read-out: Activity
MDA-MB-231 [7] = test: Induction of apoptosis in human MDA-MB-231 cells assessed as early apoptotic cells at 1 uM measured for 48 hrs by Annexin V-FITC/PI staining based flow cytometry assay (reference value: 0.49%); type: functional
MDA-MB-231 [8] = test: Induction of apoptosis in human MDA-MB-231 cells assessed as decrease in Bcl-2 level upto 20 uM incubated for 48 hrs by Western blot analysis; type: functional, cell-based
MDA-MB-231 [9] = test: Induction of apoptosis in human MDA-MB-231 cells assessed as viable cells at 5 uM measured for 48 hrs by Annexin V-FITC/PI staining based flow cytometry assay (reference value: 93.7%); type: functional; settings: read-out: Activity
A549 = test: Antiproliferative activity against human A549 cells assessed as cell growth inhibition incubated for 4 hrs by MTT assay; type: functional, cell-based; settings: A549, 4 h
MDA-MB-231 [10] = test: Induction of apoptosis in human MDA-MB-231 cells assessed as increase in Bax level upto 20 uM incubated for 48 hrs by Western blot analysis; type: functional, cell-based
MDA-MB-231 [11] = test: Induction of apoptosis in human MDA-MB-231 cells assessed as increase in ROS levels at 10 uM measured at 12 hrs by DCFH-DA staining based flow cytometry assay; type: functional, cell-based
MDA-MB-231 [12] = test: Induction of cell cycle arrest in human MDA-MB-231 cells assessed as accumulation of cells at M1 phase at 10 uM incubated for 48 hrs by propidium iodide staining based flow cytometry (reference value: 7.1%); type: functional
[13] = Selectivity index, ratio of IC50 for antiproliferative activity against human HT-29 cells to IC50 for antiproliferative activity against human MDA-MB-231 cells; type: functional
MDA-MB-231 [14] = test: Induction of cell cycle arrest in human MDA-MB-231 cells assessed as accumulation of cells at G0/G1 phase at 20 uM incubated for 48 hrs by propidium iodide staining based flow cytometry (reference value: 90.25%); type: functional
MDA-MB-231 [15] = test: Induction of cell cycle arrest in human MDA-MB-231 cells assessed as accumulation of cells at S phase at 1 uM incubated for 48 hrs by propidium iodide staining based flow cytometry (reference value: 3.62%); type: functional
MDA-MB-231 [16] = test: Induction of cell cycle arrest in human MDA-MB-231 cells assessed as accumulation of cells at S phase at 10 uM incubated for 48 hrs by propidium iodide staining based flow cytometry (reference value: 3.62%); type: functional
MDA-MB-231 [17] = test: Induction of cell cycle arrest in human MDA-MB-231 cells assessed as accumulation of cells at S phase at 20 uM incubated for 48 hrs by propidium iodide staining based flow cytometry (reference value: 3.62%); type: functional
MDA-MB-231 [18] = test: Induction of apoptosis in human MDA-MB-231 cells assessed as upregulation of cleaved caspase-3 level upto 20 uM incubated for 48 hrs by Western blot analysis; type: functional, cell-based
MDA-MB-231 [19] = test: Induction of apoptosis in human MDA-MB-231 cells assessed as necrotic cells at 5 uM measured for 48 hrs by Annexin V-FITC/PI staining based flow cytometry assay (reference value: 0.43%); type: functional
MDA-MB-231 [20] = test: Induction of apoptosis in human MDA-MB-231 cells assessed as upregulation of PARP level upto 20 uM incubated for 48 hrs by Western blot analysis; type: functional, cell-based
MDA-MB-231 [21] = test: Induction of cell cycle arrest in human MDA-MB-231 cells assessed as accumulation of cells at M1 phase at 20 uM incubated for 48 hrs by propidium iodide staining based flow cytometry (reference value: 7.1%); type: functional
MDA-MB-231 [22] = test: Induction of apoptosis in human MDA-MB-231 cells assessed as early apoptotic cells at 5 uM measured for 48 hrs by Annexin V-FITC/PI staining based flow cytometry assay (reference value: 0.49%); type: functional
MDA-MB-231 [23] = test: Induction of apoptosis in human MDA-MB-231 cells assessed as early apoptotic cells at 10 uM measured for 48 hrs by Annexin V-FITC/PI staining based flow cytometry assay (reference value: 0.49%); type: functional
MDA-MB-231 [24] = test: Induction of apoptosis in human MDA-MB-231 cells assessed as viable cells at 10 uM measured for 48 hrs by Annexin V-FITC/PI staining based flow cytometry assay (reference value: 93.7%); type: functional; settings: read-out: Activity
[25] = Selectivity index, ratio of IC50 for antiproliferative activity against human A549 cells to IC50 for antiproliferative activity against human MDA-MB-231 cells; type: functional
MDA-MB-231 [26] = test: Induction of apoptosis in human MDA-MB-231 cells assessed as necrotic cells at 1 uM measured for 48 hrs by Annexin V-FITC/PI staining based flow cytometry assay (reference value: 0.43%); type: functional
MDA-MB-231 [27] = test: Inhibition of colony formation in human MDA-MB-231 cells upto 5 uM for 9 days by crystal violet staining based assay; type: functional, cell-based; settings: time 9.0 day
MDA-MB-231 [28] = test: Antiproliferative activity against human MDA-MB-231 cells assessed as cell growth inhibition incubated for 4 hrs by MTT assay; type: functional, cell-based; settings: MDA-MB-231, 4 h
MDA-MB-231 [29] = test: Induction of cell cycle arrest in human MDA-MB-231 cells assessed as accumulation of cells at M1 phase at 5 uM incubated for 48 hrs by propidium iodide staining based flow cytometry (reference value: 7.1%); type: functional
MDA-MB-231 [30] = test: Induction of apoptosis in human MDA-MB-231 cells assessed as increase in ROS levels at 10 uM measured upto 48 hrs by DCFH-DA staining based flow cytometry assay; type: functional, cell-based
MDA-MB-231 [31] = test: Induction of apoptosis in human MDA-MB-231 cells assessed as necrotic cells at 10 uM measured for 48 hrs by Annexin V-FITC/PI staining based flow cytometry assay (reference value: 0.43%); type: functional
MDA-MB-231 [32] = test: Induction of cell cycle arrest in human MDA-MB-231 cells assessed as accumulation of cells at G2/M phase at 5 uM incubated for 48 hrs by propidium iodide staining based flow cytometry (reference value: 3.61%); type: functional
MDA-MB-231 [33] = test: Induction of apoptosis in human MDA-MB-231 cells assessed as late apoptotic cells at 1 uM measured for 48 hrs by Annexin V-FITC/PI staining based flow cytometry assay (reference value: 5.39%); type: functional
HT-29 = test: Antiproliferative activity against human HT-29 cells assessed as cell growth inhibition incubated for 4 hrs by MTT assay; type: functional, cell-based; settings: HT-29, 4 h
MDA-MB-231 [34] = test: Induction of cell cycle arrest in human MDA-MB-231 cells assessed as accumulation of cells at G2/M phase at 1 uM incubated for 48 hrs by propidium iodide staining based flow cytometry (reference value: 3.61%); type: functional
MDA-MB-231 [35] = test: Induction of cell cycle arrest in human MDA-MB-231 cells assessed as accumulation of cells at G2/M phase at 20 uM incubated for 48 hrs by propidium iodide staining based flow cytometry (reference value: 3.61%); type: functional
MDA-MB-231 [36] = test: Induction of cell cycle arrest in human MDA-MB-231 cells assessed as accumulation of cells at G0/G1 phase at 10 uM incubated for 48 hrs by propidium iodide staining based flow cytometry (reference value: 90.25%); type: functional
MDA-MB-231 [37] = test: Induction of cell cycle arrest in human MDA-MB-231 cells assessed as accumulation of cells at M1 phase at 1 uM incubated for 48 hrs by propidium iodide staining based flow cytometry (reference value: 7.1%); type: functional
MDA-MB-231 [38] = test: Induction of apoptosis in human MDA-MB-231 cells assessed as late apoptotic cells at 13.5 uM measured for 48 hrs by Annexin V-FITC/PI staining based flow cytometry assay (reference value: 5.39%); type: functional

IC50 (A549): 30.9 µM | IC50 (MDA-MB-231 [28]): 0.42 µM | IC50 (HT-29): 11.7 µM
SMILES: COc1ccccc1/C=C/C(=O)NCCNC(=O)[C@H]1CC[C@H]2[C@@H]3CCC4=CC(=O)CC[C@]4(C)[C@H]3CC[C@]12C
Activity (MDA-MB-231 [1]): 13.15% | Activity (MDA-MB-231 [2]): 4.35% | Activity (MDA-MB-231 [3]): 69.83% | Activity (MDA-MB-231 [4]): 84.13% | Activity (MDA-MB-231 [5]): 15.23% | viability at 1 µM (MDA-MB-231 [6]): 84% | Activity (MDA-MB-231 [7]): 9.24% | Activity (MDA-MB-231 [8]): Active | viability at 5 µM (MDA-MB-231 [9]): 78.3% | Activity (MDA-MB-231 [10]): Active | Activity (MDA-MB-231 [11]): Active | Activity (MDA-MB-231 [12]): 22.8% | Ratio IC50 [13]: 22.5 | Activity (MDA-MB-231 [14]): 47.17% | Activity (MDA-MB-231 [15]): 2.52% | Activity (MDA-MB-231 [16]): 28.07% | Activity (MDA-MB-231 [17]): 37.22% | Activity (MDA-MB-231 [18]): Active | Activity (MDA-MB-231 [19]): 0.16% | Activity (MDA-MB-231 [20]): Active | Activity (MDA-MB-231 [21]): 37.4% | Activity (MDA-MB-231 [22]): 17.1% | Activity (MDA-MB-231 [23]): 45% | viability at 10 µM (MDA-MB-231 [24]): 41.1% | Ratio IC50 [25]: 73.5 | Activity (MDA-MB-231 [26]): 0.16% | inhibition (MDA-MB-231 [27]): Active | Activity (MDA-MB-231 [29]): 16% | Activity (MDA-MB-231 [30]): Active | Activity (MDA-MB-231 [31]): 0.4% | Activity (MDA-MB-231 [32]): 12.25% | Activity (MDA-MB-231 [33]): 6.63% | Activity (MDA-MB-231 [34]): 12.11% | Activity (MDA-MB-231 [35]): 10.01% | Activity (MDA-MB-231 [36]): 55.27% | Activity (MDA-MB-231 [37]): 13.8% | Activity (MDA-MB-231 [38]): 13.5%
